Source: patent publication US6552197B2, “Condensed-hexacyclic compounds and a process therefor” (Daiichi Pharmaceutical Co., Ltd., priority 1995, dated 2003)

Experiments:
[1] = Color change on storage at high relative humidity, measured by a color difference meter; assay type: physicochemical; details: for color change observed on stored sample: stored at a high relative humidity
Procedure: The control product was stored at a relative humidity of 93% and the degree of a color change was measured.

[2] = Hygroscopicity test (weight changes due to moisture absorption); assay type: physicochemical; details: exposed to humidity of 83% and 93% at 25° C. over 5 days; FIG. 1
Procedure: A hygroscopicity test was conducted on (lS,9S)-1-amino-9-ethyl-5-fluoro-2,3-dihydro-9-hydroxy-4-methyl-1H,12H-benzo[de]pyrano[3′,4′:6,7]indolizino[1,2-b]-quinoline-10,13(9H,15H)-dione•methanesulfonate•dihydrate according to the present invention and (1S,9S)-1-amino-9-ethyl-5-fluoro-2,3-dihydro-9-hydroxy-4-methyl-1H,12H-benzo[de]pyrano[3′,4′:6,7]indolizino[1,2-b]-quinoline-10,13(9H,15H)-dione-hydrochloride (control product).
Described specifically, each salt was exposed to high-humidity conditions of 83% and 93% at 25° C. Over a period of 5 days, its weight changes were investigated.

[3] = stored for 0 month, relative humidity 93%
[4] = stored for 1 month, 25° C., relative humidity 93%
[5] = stored for 2 months, 25° C., relative humidity 93%

SMILES | decomposition by moisture absorption (conclusion from color change) ([1]; stored at 25° C., relative humidity 93%) | color change observed on stored sample [1] | Color [1, 3] | Lab (chromaticity, brightness) [1, 3] | Color [1, 4] | Lab (chromaticity, brightness) [1, 4] | ΔE(H) (degree of a color difference) [1, 4] | Color [1, 5] | Lab (chromaticity, brightness) [1, 5] | ΔE(H) (degree of a color difference) [1, 5] | weight changes due to moisture absorption (hygroscopicity) [2]
CC[C@@]1(O)C(=O)OCc2c1cc1n(c2=O)Cc2c-1nc1cc(F)c(C)c3c1c2[C@@H](N)CC3.Cl [control product, (1S,9S)-1-amino-9-ethyl-5-fluoro-2,3-dihydro-9-hydroxy-4-methyl-1H,12H-benzo[de]pyrano[3′,4′:6,7]indolizino[1,2-b]-quinoline-10,13(9H,15H)-dione-hydrochloride] | decomposes by moisture absorption | color change (yellowish brown—brown; originally: yellow) was observed | Yellow | 81.68-81.69 | brown-yellow | 74.96-75.23 | 7.16-7.38 | brown-yellow | 62.65-67.43 | 14.53-19.24 | high hygroscopicity and a fast weight change due to hygroscopicity
CC[C@@]1(O)C(=O)OCc2c1cc1n(c2=O)Cc2c-1nc1cc(F)c(C)c3c1c2[C@@H](N)CC3 [methanesulfonate, (1S,9S)-1-Amino-9-ethyl-5-fluoro-2,3-dihydro-9-hydroxy-4-methyl-1H,12H-benzo[de]pyrano[3′,4′:6,7]-indolizino[1,2-b]quinoline-10,13(9H,15H)-dione•methanesulfonate•dihydrate] |  | No color change |  |  |  |  |  |  |  |  | a gradual and small change
